Structures can show the parent of a compound that is named as a salt.
system: PAKT/PKB (p-(S473) AKT) in H209 small cell lung carcinoma cells stimulated with Stem Cell Factor; test: PAKT/PKB Cytoblot Assay with H209 cells (SCF-stimulated p-(S473) AKT); assay type: cell-based; conditions: Homo sapiens, NCI-H209, compound 1 hour, SCF 25 ng/mL 5 minutes, group: between 500 nM and 1 μM (units in value)
Method: PAKT/PKB Cytoblot Assay Protocol with H209 Cells
H209 small cell lung carcinoma cells in log phase were plated at 50,000 cells/well in 96-well poly-lysine coated, clear bottom/black-sided plates (BD Cat # 354640) in 100 μl RPMI medium containing 0.1% (w/v) BSA, and incubated overnight at 37° C. in 5% CO2 incubator. The following day, compounds (10 mM stock solutions in DMSO) were added to the plates to generate final concentrations of 0.0, 0.01, 0.03, 0.1, 0.3, 1.0, 3.0 and 10 μM for IC50 determinations and incubated for 1 hour at 37° C. Cells were then left untreated or stimulated with Stem Cell Factor (SCF: Biosource Cat # PHC2116) at a final concentration of 25 ng/mL for 5 minutes at 37° C. in 5% CO2 incubator. The media was then removed using a vacuum manifold and the cells were washed once with Tris Buffered Saline (TBS).
Cells were then fixed by adding 200 μl of cold 3.7% (v/v) formaldehyde in TBS to each well for 15 minutes at 4° C. After removal of the formaldehyde, the cells were treated with the addition of 50 μl of methanol (at −20° C.) to each well for 5 minutes. After removal of the methanol, […] of 1% (w/v) BSA in TBS was added to each well to block non-specific antibody binding sites and the plate was incubated at room temperature for 30 minutes.
After removal of the blocking buffer, 50 μl of p-(S473) AKT rabbit polyclonal antibody (Cell Signaling Cat # 9277S) was added at a dilution of 1:250 in 0.1% (w/v) BSA in TBS, and the plate was incubated at room temperature for 1 hour. Plates were then washed 3 times with cold TBS containing 0.05% (v/v) Tween 20 (TBS-T) and […] of Horseradish peroxidase (HRP)-conjugated goat-anti-rabbit antibody (Amersham Cat # NA934V) at a dilution of 1:250 in TBS-T was added and the plate was incubated at room temperature for 1 h. After washing with ice-cold TBS-T four times, 100 μl of Enhanced Chemiluminescence (ECL) reagent (Amersham Cat# RPN2209) was added to each well and mixed on a mini-orbital shaker for 1 min. The plate was then read on a Perkin Elmer Victor 5 Multilabel Counter (#1420-0421).

Q: How did the IC50 turn out when `O=C(NCCCN1CCCCC1)c1cc(CNc2ccccc2C(=O)Nc2ccc3c(c2)OC(F)(F)O3)ccn1` [Example 98, 4-{[(2-{[(2,2-difluoro-1,3-benzodioxol-5-yl)amino]carbonyl}phenyl)amino]methyl}-N-(3-piperidin-1-ylpropyl)pyridine-2-carboxamide] was run?
A: 500 to 1000 nM

Q: Which IC50 does the source give for `COCCOCC(=O)Nc1cc(CNc2ccccc2C(=O)Nc2ccc3c(c2)OC(F)(F)O3)ccn1` [Example 154, N-(2,2-difluoro-1,3-benzodioxol-5-yl)-2-{[(2{[(2-methoxyethoxy)acetyl]amino}pyridin-4-yl)methyl]amino}benzamide] here?
A: 500 to 1000 nM

same assay, conditions: Homo sapiens, NCI-H209, compound 1 hour, SCF 25 ng/mL 5 minutes, group: between 1 and 3 μM

Q: Which IC50 does the source give for `COc1cccc(C(=O)Nc2ccc3c(c2)OC(F)(F)C(F)(F)O3)c1NCc1ccncc1` [Example 7, 3-methoxy-2-[(pyridin-4-ylmethyl)amino]-N-(2,2,3,3-tetrafluoro-2,3-dihydro-1,4-benzodioxin-6-yl)benzamide] here?
A: 1000 to 3000 nM

Q: Which IC50 does the source give for `N#Cc1cccc(NC(=O)Nc2cc(CNc3ccccc3C(=O)Nc3ccc4c(c3)OC(F)(F)O4)ccn2)c1` [Example 166, 2-({[2-({[(3-cyanophenyl)amino]carbonyl}amino)pyridin-4-yl]methyl}amino)-N-(2,2-difluoro-1,3-benzodioxol-5-yl)benzamide] here?
A: 1000 to 3000 nM

Q: `CCN(CCNC(=O)c1cc(CNc2ccccc2C(=O)Nc2ccc3c(c2)OC(F)(F)O3)ccn1)c1cccc(C)c1` [Example 106, 4-{[(2-{[(2,2-difluoro-1,3-benzodioxol-5-yl)amino]carbonyl}phenyl)amino]methyl}-N-{2-[ethyl(3-methylphenyl)amino]ethyl}pyridine-2-carboxamide] was tested. Which IC50 did it give?
A: 1000 to 3000 nM

Q: For `O=C(NCCCO)c1cc(CNc2ccccc2C(=O)Nc2ccc3c(c2)OC(F)(F)O3)ccn1` [Example 93, 4-{[(2-{[(2,2-difluoro-1,3-benzodioxol-5-yl)amino]carbonyl}phenyl)amino]methyl}-N-(3-hydroxypropyl)pyridine-2-carboxamide], which IC50 is on record?
A: 1000 to 3000 nM

Q: With `CN(C)CC(C)(C)CNC(=O)c1cc(CNc2ccccc2C(=O)Nc2ccc3c(c2)OC(F)(F)O3)ccn1` [Example 121, 4-{[(2-{[(2,2-difluoro-1,3-benzodioxol-5-yl)amino]carbonyl}phenyl)amino]methyl}-N-[3-(dimethylamino)-2,2-dimethylpropyl]pyridine-2-carboxamide] as the molecule, how does the IC50 read?
A: 1000 to 3000 nM

Q: `CCOc1cc(CCNC(=O)c2cc(CNc3ccccc3C(=O)Nc3ccc4c(c3)OC(F)(F)O4)ccn2)ccc1OC` [Example 126, 4-{[(2-{[(2,2-difluoro-1,3-benzodioxol-5-yl)amino]carbonyl}phenyl)amino]methyl}-N-[2-(3-ethoxy-4-methoxyphenyl)ethyl]pyridine-2-carboxamide] was tested. Which IC50 did it give?
A: 1000 to 3000 nM

same assay, conditions: Homo sapiens, NCI-H209, compound 1 hour, SCF 25 ng/mL 5 minutes, group: less than 500 nM

Q: Which IC50 does the source give for `COCCNc1cc(CNc2ccccc2C(=O)Nc2ccc3c(c2)OC(F)(F)O3)ccn1` [Example 135, N-(2,2-difluoro-1,3-benzodioxol-5-yl)-2-[({2-[(2-methoxyethyl)amino]pyridin-4-yl}methyl)amino]benzamide trifluoroacetate] here?
A: < 500 nM

Q: Which IC50 does the source give for `N#Cc1cc(CNc2ccccc2C(=O)Nc2ccc3c(c2)OC(F)(F)C(F)(F)O3)ccn1` [Example 22, 2-{[(2-cyanopyridin-4-yl)methyl]amino}-N-(2,2,3,3-tetrafluoro-2,3-dihydro-1,4-benzodioxin-6-yl)benzamide] here?
A: < 500 nM

Q: Which IC50 does the source give for `COCCCNC(=O)c1cc(CNc2ccccc2C(=O)Nc2ccc3c(c2)OC(F)(F)O3)ccn1` [Example 89, 4-{[(2-{[(2,2-difluoro-1,3-benzodioxol-5-yl)amino]carbonyl}phenyl)amino]methyl}-N-(3-methoxypropyl)pyridine-2-carboxamide] here?
A: < 500 nM

Q: `O=C(Nc1ccc2c(c1)OC(F)(F)O2)c1ccc(F)cc1NCc1ccncc1` [Example 21, N-(2,2-difluoro-1,3-benzodioxol-5-yl)-4-fluoro-2-[(pyridin-4-ylmethyl)amino]benzamide] was tested. Which IC50 did it give?
A: < 500 nM

Q: With `O=C(Nc1ccc2c(c1)OC(F)(F)O2)c1ccccc1NCc1ccnc(NCCCO)c1` [Example 137, N-(2,2-difluoro-1,3-benzodioxol-5-yl)-2-[({2-[(3-hydroxypropyl)amino]pyridin-4-yl}methyl)amino]benzamide trifluoroacetate(salt)] as the molecule, how does the IC50 read?
A: < 500 nM

Q: `CN(C)C(=O)Nc1cc(CNc2ccccc2C(=O)Nc2ccc3c(c2)OC(F)(F)O3)ccn1` [Example 174, N-(2,2-difluoro-1,3-benzodioxol-5-yl)-2-{[(2-{[(dimethylamino)carbonyl]amino}pyridin-4-yl)methyl]amino}benzamide] was tested. Which IC50 did it give?
A: < 500 nM

Q: How did the IC50 turn out when `O=C(Nc1ccc2c(c1)OC(F)(F)C(F)(F)O2)c1ncccc1NCc1ccncc1` [Example 17, 3-[(Pyridin-4-ylmethyl)amino]-N-(2,2,3,3-tetrafluoro-2,3-dihydro-1,4-benzodioxin-6-yl)pyridine-2-carboxamide] was run?
A: < 500 nM

Q: With `Nc1cc(CNc2ccccc2C(=O)Nc2ccc3c(c2)OC(F)(F)O3)ccn1` [Example 153, 2-{[(2-aminopyridin-4-yl)methyl]amino}-N-(2,2-difluoro-1,3-benzodioxol-5-yl)benzamide] as the molecule, how does the IC50 read?
A: < 500 nM

Q: How did the IC50 turn out when `CS(=O)(=O)Nc1cc(CNc2ccccc2C(=O)Nc2ccc3c(c2)OC(F)(F)O3)ccn1` [Example 175, N-(2,2-difluoro-1,3-benzodioxol-5-yl)-2-[({2-[(methylsulfonyl)amino]pyridin-4-yl}methyl)amino]benzamide] was run?
A: < 500 nM

Q: Which IC50 does the source give for `N#Cc1cc(CNc2ccccc2C(=O)Nc2ccc3c(c2)C(F)(F)OC(F)(F)O3)ccn1` [Example 23, 2-{[(2-cyanopyridin-4-yl)methyl]amino}-N-(2,2,4,4-tetrafluoro-4H-1,3-benzodioxin-6-yl)benzamide] here?
A: < 500 nM

Q: `CCCNC(=O)Nc1cc(CNc2ccccc2C(=O)Nc2ccc3c(c2)OC(F)(F)O3)ccn1` [Example 169, N-(2,2-difluoro-1,3-benzodioxol-5-yl)-2-{[(2-{[(propylamino)carbonyl]amino}pyridin-4-yl)methyl]amino}benzamide] was tested. Which IC50 did it give?
A: < 500 nM

Q: With `NC(=O)c1cc(CNc2ccccc2C(=O)Nc2ccc3c(c2)OC(F)(F)O3)ccn1` [Example 75, 4-{[(2-{[(2,2-Difluoro-1,3-benzodioxol-5-yl)amino]carbonyl}phenyl)amino]methyl}pyridine-2-carboxamide] as the molecule, how does the IC50 read?
A: < 500 nM

Q: `O=C(Nc1ccc2c(c1)OC(F)(F)O2)c1ccccc1NCc1ccnc(NCCc2c[nH]cn2)c1` [Example 147, N-(2,2-difluoro-1,3-benzodioxol-5-yl)-2-{[(2-{[2-(1H-imidazol-4-yl)ethyl]amino}pyridin-4-yl)methyl]amino}benzamidebis(trifluoroacetate)] was tested. Which IC50 did it give?
A: < 500 nM

Q: How did the IC50 turn out when `CC(=O)OCC(=O)Nc1cc(CNc2ccccc2C(=O)Nc2ccc3c(c2)OC(F)(F)O3)ccn1` [Example 156, 2-[(4-{[(2-{[(2,2-difluoro-1,3-benzodioxol-5-yl)amino]carbonyl}phenyl)amino]methyl}pyridin-2-yl)aminol-2-oxoethyl acetate] was run?
A: < 500 nM

Q: With `CN1CCCC1CCNc1cc(CNc2ccccc2C(=O)Nc2ccc3c(c2)OC(F)(F)O3)ccn1` (stereo not drawn) [Example 145, N-(2,2-difluoro-1,3-benzodioxol-5-yl)-2-{[(2-{[2-(1-methylpyrrolidin-2-yl)ethyl]amino}pyridin-4-yl)methyl]amino}benzamidebis(trifluoroacetate)] as the molecule, how does the IC50 read?
A: < 500 nM

Q: How did the IC50 turn out when `CCNC(=O)c1cc(CNc2ccc(F)cc2C(=O)Nc2ccc3c(c2)OC(F)(F)O3)ccn1` [Example 46, 4-{[(2-{[(2,2-difluoro-1,3-benzodioxol-5-yl)amino]carbonyl}-4-fluorophenyl)amino]methyl}-N-ethylpyridine-2-carboxamide] was run?
A: < 500 nM

Q: Which IC50 does the source give for `CNc1cc(CNc2ccccc2C(=O)Nc2ccc3c(c2)OC(F)(F)O3)ccn1` [Example 139, N-(2,2-difluoro-1,3-benzodioxol-5-yl)-2-({[2-(methylamino)pyridin-4-yl]methyl}amino)benzamide trifluoroacetate] here?
A: < 500 nM

Q: How did the IC50 turn out when `O=C(NCC(O)CO)c1cc(CNc2ccccc2C(=O)Nc2ccc3c(c2)OC(F)(F)O3)ccn1` (stereo not drawn) [Example 79, 4-{[(2-{[(2,2-Difluoro-1,3-benzodioxol-5-yl)amino]carbonyl}phenyl)amino]methyl}-N-(2,3-dihydroxypropyl)pyridine-2-carboxamide] was run?
A: < 500 nM

Q: For `CNC(=O)c1cc(CNc2ccc(F)cc2C(=O)Nc2ccc3c(c2)OC(F)(F)C(F)(F)O3)ccn1` [Example 34, 4-{[(4-fluoro-2-{[(2,2,3,3-tetrafluoro-2,3-dihydro-1,4-benzodioxin-6-yl)amino]carbonyl}phenyl)amino]methyl}-N-methylpyridine-2-carboxamide], which IC50 is on record?
A: < 500 nM

Reference: patent US20080293696A1, “2-Aminoarylcarboxamides Useful as Cancer Chemotherapeutic Agents” (Bayer Pharmaceuticals Corporation, priority 2004, published 2008)
